Key:
[1] = tested on: genetically obese db/db mice; test: Liver and adipose tissue of genetically obese db/db mice; type: in vivo
Source text: After the treatment of the mice with compound of Formula I for one month, the mice were sacrificed and their liver and epididymal fat pads were harvested. The organs were individually weighed and then processed for morphology study by hematoxylin and eosin staining.
Average weights of liver (i) and adipose tissue (ii) of the mice of the three different groups are represented by bar graphs (FIG. 11); n=4 in each group:one-way ANOVA with Dunnett's multiple comparison; * P<0.05, ** P<0.01, *** P<0.001, ns: not significant. Representative images of morphology of adipose tissue (iii) and liver (iv) from the mice of the three groups, as studied by hematoxylin and eosin staining.

[2] = tested on: histone butyrylation and acetylation in liver and adipose tissue; test: Histone modifications in liver and adipose tissue of high fat diet mice; type: in vivo
Experimental: Collected liver tissue samples were stored in 4% paraformaldehyde for 24 hours after which they were cryoprotected in 30% sucrose solution for two weeks. Cryosections were performed at 7 μm sections using Cryostat Leica CM1850 UV. For staining, the tissue sections were washed with PBS followed by antigen retrieval with 0.01 M citrate buffer (pH 6). The tissues were then permeabilised with 0.3% Triton X-100/PBS (PBST) and blocked with 2% serum followed by incubation with primary antibodies overnight at 4° C. The next day, secondary antibody incubation was carried out for one hour at room temperature followed by staining of the nuclei with Hoechst 33342 and mounting with 70% glycerol. Images were acquired by confocal microscopy. For quantitation, intensity of each modification specific staining was normalized with respect to the Hoechst staining intensity.
It was observed that H4K5 butyrylation in liver increased upon high fat diet consumption but was inhibited in presence of compound of Formula I (FIG. 10A). […] Acid extraction of histones was performed from the epididymal fat pads of mice using the same protocol as mentioned in example 7. It was observed that H4K5 butyrylation was reduced in the adipocytes of high fat diet fed mice treated with compound of Formula I compared to mice fed with high fat diet only (FIG. 10B).

[3] = target: T1, full length p300 (Homo sapiens, UniProt Q09472); test: In vitro p300 butyrylation assay (immunoblot); type: biochemical; conditions: 25 μM
T1 construct: Purified full length p300 protein was used for in vitro acetylation/butyrylation assay
Experimental: Purified full length p300 protein was used for in vitro acetylation/butyrylation assay in presence/absence of different compounds. Acylation reactions were performed in reaction buffer (25 mM Tris-HCl PH 7.5, 100 mM NaCl, 0.1 mM EDTA, 1 mM DTT, 10% Glycerol, 1×PIC) with 100 ng/ml TSA, and 50 μM Butyryl-CoA/Acetyl COA. Xenopus histone H3 (500 ng) was used as the substrate and p300 (10,000 cpm activity) was used as the enzyme. Reactions were incubated in presence or absence of small molecule modulators (including compound of Formula I) for 10 minutes at 30° C., followed by initiation of the acetylation/butyrylation reaction by the addition of acetyl/butyryl CoA. After a further 10 minutes, reactions were stopped by addition of Laemmli buffer and samples were used for immunoblotting.
Immunoblotting with antibodies against acetylated H3K18, acetylated H3K9 and pan-butyryl lysine was performed to check for the relative inhibition of acetyl transferase and butyryl transferase activities of full length p300 by garcinol, isogarcinol and its different derivatives including compound of Formula I at different concentrations. FIG. 2i depicts the effect of garcinol, isogarcinol and two of its derivatives LTK-13 and LTK-14 on p300 catalysed acetyltransferase activity. […] FIG. 2ii depicts the effect of LTK-14 on acetylation and butyrylation catalysed by p300. Lane 1, enzyme alone; Lane 2-4, enzyme+LTK-14 at concentrations 500 nM, 2 μM and 10 μM, respectively. LTK-14 could inhibit acetylation at 10 μM concentration while butyrylation was inhibited at 2 μM concentration. FIG. 2iii depicts the effect of compound x on acetylation and butyrylation catalysed by p300. Lane 1, enzyme alone; Lane 2, enzyme+DMSO; Lane 3-6, enzyme+compound x at concentrations 10, 15, 20 and 25 μM, respectively.

T1 sequence (Q09472 whole entry, species assumed): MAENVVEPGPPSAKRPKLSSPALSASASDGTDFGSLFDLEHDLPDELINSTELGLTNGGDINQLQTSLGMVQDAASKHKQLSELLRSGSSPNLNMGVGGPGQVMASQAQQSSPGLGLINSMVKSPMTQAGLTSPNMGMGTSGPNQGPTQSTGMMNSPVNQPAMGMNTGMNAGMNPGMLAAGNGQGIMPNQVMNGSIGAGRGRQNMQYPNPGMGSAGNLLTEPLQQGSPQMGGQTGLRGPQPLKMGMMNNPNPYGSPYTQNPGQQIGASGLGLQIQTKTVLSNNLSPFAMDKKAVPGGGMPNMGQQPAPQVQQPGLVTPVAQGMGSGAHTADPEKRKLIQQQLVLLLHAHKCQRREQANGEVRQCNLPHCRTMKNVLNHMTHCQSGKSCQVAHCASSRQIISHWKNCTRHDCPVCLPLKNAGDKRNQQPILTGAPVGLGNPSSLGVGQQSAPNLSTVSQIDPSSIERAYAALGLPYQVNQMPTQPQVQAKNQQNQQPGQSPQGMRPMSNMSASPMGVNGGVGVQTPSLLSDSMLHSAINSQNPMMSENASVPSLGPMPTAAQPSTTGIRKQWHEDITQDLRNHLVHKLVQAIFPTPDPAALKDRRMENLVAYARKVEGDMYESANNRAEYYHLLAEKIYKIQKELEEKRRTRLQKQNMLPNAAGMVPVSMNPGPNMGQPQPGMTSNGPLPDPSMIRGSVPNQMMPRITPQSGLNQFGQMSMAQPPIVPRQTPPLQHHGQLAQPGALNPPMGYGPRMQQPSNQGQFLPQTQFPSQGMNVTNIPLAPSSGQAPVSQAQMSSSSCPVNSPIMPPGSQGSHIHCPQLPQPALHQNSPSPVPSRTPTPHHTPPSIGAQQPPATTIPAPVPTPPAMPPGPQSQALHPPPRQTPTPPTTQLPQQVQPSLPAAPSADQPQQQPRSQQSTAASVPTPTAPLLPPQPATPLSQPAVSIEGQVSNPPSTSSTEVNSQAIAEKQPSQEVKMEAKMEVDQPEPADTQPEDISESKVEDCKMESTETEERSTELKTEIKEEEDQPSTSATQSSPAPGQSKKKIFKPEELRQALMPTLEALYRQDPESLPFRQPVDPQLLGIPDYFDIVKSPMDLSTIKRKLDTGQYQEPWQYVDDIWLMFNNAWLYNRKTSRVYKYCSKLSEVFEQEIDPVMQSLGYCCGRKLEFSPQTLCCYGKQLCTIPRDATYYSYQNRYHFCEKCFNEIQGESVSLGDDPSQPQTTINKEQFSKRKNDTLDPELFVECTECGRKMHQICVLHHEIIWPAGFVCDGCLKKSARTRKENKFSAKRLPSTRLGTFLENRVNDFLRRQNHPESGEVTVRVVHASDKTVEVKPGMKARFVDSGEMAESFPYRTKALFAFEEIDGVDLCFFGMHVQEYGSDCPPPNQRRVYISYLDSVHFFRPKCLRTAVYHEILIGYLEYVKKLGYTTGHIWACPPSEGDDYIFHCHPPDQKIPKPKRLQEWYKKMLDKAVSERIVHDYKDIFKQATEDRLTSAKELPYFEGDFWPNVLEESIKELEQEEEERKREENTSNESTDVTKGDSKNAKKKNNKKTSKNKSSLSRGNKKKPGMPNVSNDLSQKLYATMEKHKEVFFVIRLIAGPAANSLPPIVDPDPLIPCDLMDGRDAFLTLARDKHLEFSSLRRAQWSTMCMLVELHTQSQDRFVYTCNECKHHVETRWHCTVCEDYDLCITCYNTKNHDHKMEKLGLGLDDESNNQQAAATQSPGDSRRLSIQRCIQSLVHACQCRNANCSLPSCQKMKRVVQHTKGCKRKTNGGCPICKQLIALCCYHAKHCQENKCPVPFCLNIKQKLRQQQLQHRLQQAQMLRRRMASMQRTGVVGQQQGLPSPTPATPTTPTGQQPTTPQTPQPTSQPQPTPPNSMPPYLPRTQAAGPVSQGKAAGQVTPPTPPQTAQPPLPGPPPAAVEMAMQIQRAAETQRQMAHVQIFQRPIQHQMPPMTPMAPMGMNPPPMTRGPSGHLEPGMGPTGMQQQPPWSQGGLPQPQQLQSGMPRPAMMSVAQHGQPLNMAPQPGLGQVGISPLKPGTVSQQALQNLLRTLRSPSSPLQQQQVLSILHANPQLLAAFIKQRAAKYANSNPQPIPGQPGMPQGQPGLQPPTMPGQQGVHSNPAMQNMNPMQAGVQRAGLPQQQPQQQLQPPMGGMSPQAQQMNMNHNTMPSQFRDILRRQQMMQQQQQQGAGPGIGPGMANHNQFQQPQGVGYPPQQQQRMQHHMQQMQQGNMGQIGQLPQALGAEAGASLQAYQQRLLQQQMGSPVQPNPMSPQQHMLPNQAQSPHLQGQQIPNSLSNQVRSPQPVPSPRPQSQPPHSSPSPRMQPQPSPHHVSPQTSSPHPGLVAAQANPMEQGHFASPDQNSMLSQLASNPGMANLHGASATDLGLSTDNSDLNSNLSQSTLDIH

COc1ccc(C(=O)C2=C3OC(C)(C)[C@@H](CC=C(C)C)C[C@@]34C[C@@H](CC=C(C)C)C(C)(C)[C@@](CC=C(C)C)(C2=O)C4=O)cc1OC [Compound X]
liver and epididymal fat pad weights ([1]; between db/db vehicle and db+/-): intermediate weights | symptoms of liver steatosis and adipose tissue hypertrophy ([1]; one month treatment): significantly reduced | H4K5 butyrylation in adipocytes ([2]; epididymal fat pads, immunoblot): reduced | H4K5 butyrylation in liver ([2]; immunohistochemistry): inhibited | H4K12 and H3K14 acetylation in liver ([2]; immunohistochemistry): not affected | effect on butyrylation catalysed by p300 [3]: significant inhibitory effect

From patent US20240269106A1, “SMALL MOLECULE MODULATOR TARGETING A RARE HISTONE MODIFICATION REGULATING ADIPOGENESIS AND PHARMACEUTICAL FORMULATION THEREOF” (COUNCIL OF SCIENTIFIC AND INDUSTRIAL RESEARCH AN INDIAN …, priority 2021, published 2024)
